Where a name gives a salt, the structure may show the parent alone.

T1 sequence (Q9Y2T5 whole entry): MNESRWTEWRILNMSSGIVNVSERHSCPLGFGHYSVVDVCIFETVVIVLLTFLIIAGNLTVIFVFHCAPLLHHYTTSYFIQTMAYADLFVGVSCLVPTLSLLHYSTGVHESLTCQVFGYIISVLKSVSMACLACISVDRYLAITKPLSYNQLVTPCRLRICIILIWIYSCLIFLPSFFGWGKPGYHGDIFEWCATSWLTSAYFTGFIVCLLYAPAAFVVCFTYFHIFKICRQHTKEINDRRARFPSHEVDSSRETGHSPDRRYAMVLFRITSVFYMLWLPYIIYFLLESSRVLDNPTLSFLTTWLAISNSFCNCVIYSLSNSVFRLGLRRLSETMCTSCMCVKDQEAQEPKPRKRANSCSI

This assay concerns the target T1, recombinant human GPR52 (Homo sapiens, UniProt Q9Y2T5).
T1 construct: expressed in transfected cells
The experiment in a line: TR-FRET cAMP assay (LANCE Ultra cAMP Kit), GPR52 activity. In kind it is cell-based. As to conditions: Flp-In-CHO cells stably expressing recombinant human GPR52; cAMP production, normalized to the positive control. Here is the method: TR-FRET cAMP assays were performed using commercially available assay kits (LANCE™ Ultra cAMP Kit). Controls and compounds were solubilized in DMSO using ½ log dilution to generate duplicate 10-point dose response curves in 384-well polypropylene compound plates. Sixty nanoliters of the diluted compounds were transferred into 384-well NBS assay plates and further diluted to 1× with the addition of 2000 cells per well. Flp-In™—CHO cells that stably express recombinant human GPR52.
Cells were harvested with cell stripper and resuspended in Stimulation Buffer (5 mM HEPES, 0.1% bovine serum albumin (BSA), 0.5 mM IBMX, pH 7.4). After thirty minutes incubation at room temperature, detection reagents were added to each well. Plates were then incubated for 30 minutes at room temperature. The LANCE™ Ultra cAMP assay uses time-resolved fluorescence resonance energy transfer (TR-FRET) to detect cAMVP production; this signal was quantified using a Pherastar multi-mode plate reader.
Dose-response curves were generated from the fluorescence counts normalized to the positive control. E EC50 values were obtained using a nonlinear regression curve-fitting program.
For `Cc1cc(-c2cc(COc3ccnc(C(F)(F)F)c3)ccn2)ccc1C(N)=O` [Example 11, 4-[4-({[2-(trifluoromethyl)pyridin-4-yl]oxy}methyl)pyridin-2-yl]-2-methyl benzamide], the concentration for a half-maximal effect (EC50) (as a rule, the concentration needed to bring the measured effect to its halfway point) was 101 to 1000 nM.
On to `Cc1cc(-c2cc(COc3ccc(C(F)(F)F)cc3)ccn2)ccc1C(N)=O` [Example 1, 4-{4-[4-(trifluoromethyl)phenoxymethyl]pyridin-2-yl}2-methyl-benzamide hydrochloride], for which the concentration giving a half-maximal response (EC50) was 25 to 100 nM.
On to `Cc1cc(-c2cncc(COc3cc(F)c(F)c(F)c3)c2)ccc1C(N)=O` [Example 100, 4-[5-(3,4,5-trifluorophenoxymethyl)pyridin-3-yl]2-methylbenzamide], for which the EC50 lay within 101 to 1000 nM.
Regarding `Cc1cc(-c2ccnc(COc3cc(F)cc(F)c3)c2)ccc1C(N)=O` [Example 85, 4-[2-(3,5-difluorophenoxymethyl)pyridin-4-yl]-2-methylbenzamide], the 50% effective concentration (EC50) was in the range of 101 to 1000 nM.
As for `CCc1ccccc1OCc1ccnc(-c2ccc(C(N)=O)c(C)c2)c1` [Example 32, 4-[4-(2-ethylphenoxymethyl)pyridin-2-yl]-2-methylbenzamide], the figure is 101 to 1000 nM.
As for `COc1cc(OCc2ccnc(-c3ccc(C(N)=O)c(C)c3)c2)ccc1C(F)(F)F` [Example 58, 4-{4-[3-methoxy-4-(trifluoromethyl)phenoxymethyl]pyridin-2-yl}-2-methylbenzamide], the figure is 25 to 100 nM.
As for `Cc1ccc(OCc2ccnc(-c3ccc(C(N)=O)c(C)c3)c2)cc1Cl` [Example 18, 4-[4-(3-chloro-4-methylphenoxymethyl)pyridin-2-yl]-2-methylbenzamide], the figure is less than 25 nM; as for `Cc1cc(OCc2ccnc(-c3ccc(C(N)=O)c(C)c3)c2)ccc1Cl` [Example 28, 4-[4-(4-chloro-3-methylphenoxymethyl)pyridin-2-yl]-2-methylbenzamide], 101 to 1000 nM; as for `Cc1cc(-c2cc(COc3cc(F)cc(F)c3)ccn2)ccc1C(N)=O` [Example 15, 4-[4-(3,5-difluorophenoxymethyl)pyridin-2-yl]-2-methylbenzamide], 25 to 100 nM.
As to `COc1cc(Cl)ccc1OCc1ccnc(-c2ccc(C(N)=O)c(C)c2)c1` [Example 51, 4-[4-(4-chloro-2-methoxyphenoxymethyl)pyridin-2-yl]-2-methylbenzamide], the concentration for a half-maximal effect (EC50) is 25 to 100 nM.
To `Cc1cc(-c2cc(COc3ccc(F)c(Cl)c3)ccn2)ccc1C(N)=O` [Example 47, 4-[4-(3-chloro-4-fluorophenoxymethyl)pyridin-2-yl]-2-methylbenzamide] belongs less than 25 nM; to `Cc1cc(-c2ccnc(COc3ccc4c(c3)OCC4)c2)ccc1C(N)=O` [Example 88, 4-{2-[(2,3-dihydro-1-benzofuran-6-yloxy)methyl]pyridin-4-yl}-2-methylbenzamide], less than 25 nM; to `COc1cncc(OCc2ccnc(-c3ccc(C(N)=O)c(C)c3)c2)c1` [Example 74, 4-(4-{[(5-methoxypyridin-3-yl)oxy]methyl}pyridin-2-yl)-2-methylbenzamide], 101 to 1000 nM.
`Cc1ccc(OCc2ccnc(-c3ccc(C(N)=O)c(C)c3)c2)cc1` [Example 36, 4-[4-(4-methylphenoxymethyl)pyridin-2-yl]-2-methylbenzamide]: the EC50 was 101 to 1000 nM.
For `Cc1cc(-c2cc(COc3ccc4ccccc4c3)ccn2)ccc1C(N)=O` [Example 42, 4-{4-[(naphthalen-2-yloxy)methyl]pyridin-2-yl}-2-methylbenzamide], the half-maximal effective concentration (EC50) fell in the range of 25 to 100 nM.
As for `Cc1cc(-c2cc(COc3cc(C(F)(F)F)nn3C)ccn2)ccc1C(N)=O` [Example 66, 4-[4-({[1-methyl-3-(trifluoromethyl)-1H-pyrazol-5-yl]oxy}methyl)pyridin-2-yl]2-methylbenzamide], the figure is 25 to 100 nM.
In the case of `CSc1ccccc1OCc1ccnc(-c2ccc(C(N)=O)c(C)c2)c1` [Example 53, 4-{4-[2-(methylsulfanyl)phenoxymethyl]pyridin-2-yl}-2-methyl benzamide], the 50% effective concentration (EC50) was in the range of 25 to 100 nM.
Turning to `NC(=O)c1ccc(-c2cc(COc3ccc(C(F)(F)F)cc3)ccn2)cc1C(F)(F)F` [Example 78, 4-{4-[4-(trifluoromethyl)phenoxymethyl]pyridin-2-yl}-2-(trifluoromethyl)benzamide], the EC50 was 25 to 100 nM.
Consider `Cc1cc(-c2cc(COc3cccc(Cl)c3F)ccn2)ccc1C(N)=O` [Example 50, 4-[4-(3-chloro-2-fluorophenoxymethyl)pyridin-2-yl]-2-methylbenzamide], for which the EC50 lay in the range of 25 to 100 nM.
In the case of `Cc1cc(-c2cc(COc3ccc(Cl)c(F)c3)ccn2)ccc1C(N)=O` [Example 34, 4-[4-(4-chloro-3-fluorophenoxymethyl)pyridin-2-yl]-2-methylbenzamide], the EC50 is 101 to 1000 nM.
In the case of `Cc1cc(-c2cc(COc3cc(F)c(Cl)c(F)c3)ccn2)ccc1C(N)=O` [Example 56, 4-[4-(4-chloro-3,5-difluorophenoxymethyl)pyridin-2-yl]-2-methylbenzamide], the EC50 was less than 25 nM.
In the case of `Cc1cc(-c2cc(COc3cc(F)c(F)c(F)c3)ccn2)ccc1C(N)=O` [Example 57, 4-[4-(3,4,5-trifluorophenoxymethyl)pyridin-2-yl]-2-methyl benzamide], the EC50 was less than 25 nM.
To `Cc1cc(-c2cc(COc3cc(F)cc(C4CC4)c3)ccn2)ccc1C(N)=O` [Example 70, 4-[4-(3-cyclopropyl-5-fluorophenoxymethyl)pyridin-2-yl]-2-methylbenzamide] belongs less than 25 nM; to `COc1ccc(OCc2ccnc(-c3ccc(C(N)=O)c(C)c3)c2)cc1` [Example 30, 4-[4-(4-methoxyphenoxymethyl)pyridin-2-yl]-2-methylbenzamide], 101 to 1000 nM.
As for `CC(=O)Nc1cccc(OCc2ccnc(-c3ccc(C(N)=O)c(C)c3)c2)c1` [Example 35, 4-[4-(3-acetamidophenoxymethyl)pyridin-2-yl]-2-methylbenzamide], the concentration for a half-maximal effect (EC50) was in the range of 101 to 1000 nM.
`Cc1cc(-c2cc(COc3cncc(C#N)c3)ccn2)ccc1C(N)=O` [Example 75, 4-(4-{[(5-cyanopyridin-3-yl)oxy]methyl}pyridin-2-yl)-2-methylbenzamide]: the EC50 lay in the range of 101 to 1000 nM.
On to `Cc1cc(-c2cc(COc3cccc(F)c3F)ccn2)ccc1C(N)=O` [Example 52, 4-[4-(2,3-difluorophenoxymethyl)pyridin-2-yl]-2-methylbenzamide], for which the EC50 lay within 25 to 100 nM.
As for `Cc1cc(-c2cc(COc3cc(Cl)cc(Cl)c3)ccn2)ccc1C(N)=O` [Example 20, 4-[4-(3,5-dichlorophenoxymethyl)pyridin-2-yl]-2-methylbenzamide], the figure is less than 25 nM; as for `Cc1cc(-c2cc(COc3ccc(C(F)(F)F)c(F)c3)ccn2)ccc1C(N)=O` [Example 65, 4-{4-[3-fluoro-4-(trifluoromethyl)phenoxymethyl]pyridin-2-yl}-2-methylbenzamide], less than 25 nM.
To `COc1ccc2ccc(OCc3ccnc(-c4ccc(C(N)=O)c(C)c4)c3)cc2c1` [Example 21, 4-(4-{[(7-methoxynaphthalen-2-yl)oxy]methyl}pyridin-2-yl)-2-methylbenzamide] belongs 25 to 100 nM; to `COc1cc(OCc2cncc(-c3ccc(C(N)=O)c(C)c3)c2)ccc1C(F)(F)F` [Example 101, 4-{5-[3-methoxy-4-(trifluoromethyl)phenoxymethyl]pyridin-3-yl}-2-methylbenzamide], 101 to 1000 nM; to `Cc1cc(-c2cc(COc3ccc(C#N)cc3)ccn2)ccc1C(N)=O` [Example 26, 4-[4-(4-cyanophenoxymethyl)pyridin-2-yl]-2-methylbenzamide], 25 to 100 nM.
As for `Cc1cc(-c2cc(COc3ccc(F)cc3Cl)ccn2)ccc1C(N)=O` [Example 45, 4-[4-(2-chloro-4-fluorophenoxymethyl)pyridin-2-yl]-2-methylbenzamide], the figure is 101 to 1000 nM.
On to `Cc1cc(-c2cc(COc3cccc(CC#N)c3)ccn2)ccc1C(N)=O` [Example 73, 4-{4-[3-(cyanomethyl)phenoxymethyl]pyridin-2-yl}-2-methylbenzamide], for which the EC50 is 101 to 1000 nM.
Consider `Cc1cc(-c2cc(COc3ccc(F)c(F)c3)ccn2)ccc1C(N)=O` [Example 48, 4-[4-(3,4-difluorophenoxymethyl)pyridin-2-yl]-2-methylbenzamide], for which the half-maximal effective concentration (EC50) was less than 25 nM.
On to `COc1ccc(OCc2cncc(-c3ccc(C(N)=O)c(C)c3)c2)cc1` [Example 98, 4-[5-(4-methoxyphenoxymethyl)pyridin-3-yl]-2-methylbenzamide], for which the EC50 lay within 25 to 100 nM.
Consider `Cc1cc(-c2cc(COc3ccc(F)c(C#N)c3)ccn2)ccc1C(N)=O` [Example 7, 4-[4-(3-cyano-4-fluorophenoxymethyl)pyridin-2-yl]-2-methylbenzamide], for which the EC50 was 101 to 1000 nM.
`Cc1cc(-c2cc(COc3cc(F)c(C#N)c(F)c3)ccn2)ccc1C(N)=O` [Example 10, 4-[4-(4-cyano-3,5-difluorophenoxymethyl)pyridin-2-yl]-2-methylbenzamide]: the concentration for a half-maximal effect (EC50) lay in the range of 25 to 100 nM.
To `Cc1cc(-c2ccnc(COc3cc(F)c(F)c(F)c3)c2)ccc1C(N)=O` [Example 83, 4-[2-(3,4,5-trifluorophenoxymethyl)pyridin-4-yl]-2-methylbenzamide] belongs 101 to 1000 nM; to `Cc1ccc(OCc2ccnc(-c3ccc(C(N)=O)c(C)c3)c2)cc1F` [Example 8, 4-[4-(3-fluoro-4-methylphenoxymethyl)pyridin-2-yl]-2-methylbenzamide], 101 to 1000 nM.

For the origin of these results see patent US12421193B2, “GPR52 modulators and methods of use” (Neurocrine Biosciences, Inc., priority 2020, dated 2025).
